Experimental data as given in PubChem BioAssay (NCI).
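The concentration for 50% growth inhibition is given as GI50. TGI denotes the concentration required for complete inhibition of growth.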

Tests used:
Assay in all cases: DTP human tumour cell line panel, 384-well format
[1] = system: NCI/ADR-RES ovarian
[2] = system: MALME-3M melanoma
[3] = system: HOP-62 NSCLC
[4] = system: NCI-H226 lung
[5] = system: BT-549 breast
[6] = system: HS 578T breast
[7] = system: ACHN renal
[8] = system: SNB-19 CNS
[9] = system: MDA-MB-435 melanoma
[10] = system: UACC-62 melanoma
[11] = system: SR leukemia
[12] = system: M14 melanoma
[13] = system: EKVX NSCLC
[14] = system: SF-268 CNS
[15] = system: NCI-H522 lung
[16] = system: SK-OV-3 ovarian
[17] = system: SF-295 CNS
[18] = system: HCT-116 colon
[19] = system: PC-3 prostate
[20] = system: UACC-257 melanoma
[21] = system: KM12 colon
[22] = system: RXF 393 renal
[23] = system: SK-MEL-28 melanoma
[24] = system: SN12C renal
[25] = system: A549 NSCLC
[26] = system: MOLT-4 leukemia
[27] = system: SF-539 CNS
[28] = system: UO-31 renal
[29] = system: SW-620 colon
[30] = system: LOX IMVI melanoma
[31] = system: NCI-H460 NSCLC
[32] = system: HL-60(TB) leukemia
[33] = system: SK-MEL-5 melanoma
[34] = system: HOP-92 NSCLC
[35] = system: T-47D breast
[36] = system: HCT-15 colon
[37] = system: 786-0 renal
[38] = system: CAKI-1 renal
[39] = system: NCI-H322M lung
[40] = system: RPMI-8226 leukemia
[41] = system: DU-145 prostate
[42] = system: NCI-H23 lung
[43] = system: MDA-MB-468 breast
[44] = system: OVCAR-5 ovarian
[45] = system: OVCAR-8 ovarian
[46] = system: U251 glioblastoma
[47] = system: IGROV1 ovarian
[48] = system: OVCAR-4 ovarian
[49] = system: OVCAR-3 ovarian
[50] = system: A498 renal
[51] = system: MDA-MB-231 breast
[52] = system: SNB-75 CNS
[53] = system: MCF7 breast
[54] = system: TK-10 renal
[55] = system: COLO 205 colon
[56] = system: HT29 colon
[57] = system: HCC-2998 colon

## N#CC[C@H](C1CCCC1)n1cc(-c2ncnc3[nH]ccc23)cn1
[1]
  GI50: 23.4 µM
  TGI: 50.3 µM
[2]
  GI50: 19 µM
  TGI: 34.7 µM
[3]
  GI50: 18.7 µM
  TGI: 37.1 µM
[4]
  GI50: 5.75 µM
  TGI: 25 µM
[5]
  GI50: 19.8 µM
  TGI: 34.6 µM
[6]
  GI50: 12.4 µM
  TGI: 26 µM
[7]
  GI50: 21.1 µM
  TGI: 50.9 µM
[8]
  GI50: 30.6 µM
  TGI: 82.7 µM
[9]
  GI50: 26.6 µM
  TGI: 66.5 µM
[10]
  GI50: 21.5 µM
  TGI: 41.7 µM
[11]
  GI50: 8.31 µM
  TGI: 20.6 µM
[12]
  GI50: 27.2 µM
  TGI: 50.9 µM
[13]
  GI50: 20.9 µM
  TGI: 66 µM
[14]
  GI50: 16.2 µM
  TGI: 36.6 µM
[15]
  GI50: 13.6 µM
  TGI: 29.5 µM
[16]
  GI50: 21 µM
  TGI: 45.9 µM
[17]
  GI50: 18.3 µM
  TGI: 37.9 µM
[18]
  GI50: 23.5 µM
  TGI: 63.4 µM
[19]
  GI50: 25.7 µM
  TGI: 58.1 µM
[20]
  GI50: 25.9 µM
  TGI: 68.5 µM
[21]
  GI50: 4.07 µM
  TGI: > 100 µM
[22]
  GI50: 12.9 µM
  TGI: 30.4 µM
[23]
  GI50: 23 µM
  TGI: 55.7 µM
[24]
  GI50: 18.7 µM
  TGI: 49.7 µM
[25]
  GI50: 18.3 µM
  TGI: 52.6 µM
[26]
  GI50: 18.3 µM
  TGI: 46.1 µM
[27]
  GI50: 19.7 µM
  TGI: 42 µM
[28]
  GI50: 18.1 µM
  TGI: 47.9 µM
[29]
  GI50: 29.7 µM
  TGI: > 100 µM
[30]
  GI50: 19.1 µM
  TGI: 35.8 µM
[31]
  GI50: 16 µM
  TGI: 46.7 µM
[32]
  GI50: 23.9 µM
  TGI: 38.8 µM
[33]
  GI50: 18.2 µM
  TGI: 33.1 µM
[34]
  GI50: 22.2 µM
  TGI: 56.3 µM
[35]
  GI50: 19.5 µM
  TGI: 63.9 µM
[36]
  GI50: 26.2 µM
  TGI: 82.1 µM
[37]
  GI50: 17.4 µM
  TGI: 43.9 µM
[38]
  GI50: 21.3 µM
  TGI: 50.5 µM
[39]
  GI50: 26.3 µM
  TGI: 58.7 µM
[40]
  GI50: 19.4 µM
  TGI: 34.6 µM
[41]
  GI50: 16 µM
  TGI: 42.1 µM
[42]
  GI50: 17.1 µM
  TGI: 32.8 µM
[43]
  GI50: 23.2 µM
  TGI: 53.5 µM
[44]
  GI50: 23.5 µM
  TGI: 48.7 µM
[45]
  GI50: 27.6 µM
  TGI: 75.8 µM
[46]
  GI50: 28.4 µM
  TGI: 71.8 µM
[47]
  GI50: 22.7 µM
  TGI: 84.4 µM
[48]
  GI50: 29 µM
  TGI: 51.2 µM
[49]
  GI50: 25.8 µM
  TGI: 51.8 µM
[50]
  GI50: 21.7 µM
  TGI: 41.6 µM
[51]
  GI50: 16.4 µM
  TGI: 40.3 µM
[52]
  GI50: 18.4 µM
  TGI: 41.3 µM
[53]
  GI50: 25.9 µM
  TGI: 77.7 µM
[54]
  GI50: 29 µM
  TGI: 89.6 µM
[55]
  GI50: 24.7 µM
  TGI: 53.1 µM

## O=C(NO)c1cnc(N2CCN(S(=O)(=O)c3ccc4ccccc4c3)CC2)nc1
[1]
  GI50: 0.0155 µM
  TGI: 0.0423 µM
[2]
  GI50: 0.0258 µM
  TGI: 0.124 µM
[3]
  GI50: 0.069 µM
  TGI: 0.263 µM
[4]
  GI50: 0.136 µM
  TGI: 0.288 µM
[5]
  GI50: 0.128 µM
  TGI: 0.319 µM
[6]
  GI50: 0.086 µM
  TGI: 0.219 µM
[56]
  GI50: 0.0611 µM
  TGI: 0.197 µM
[7]
  GI50: 0.139 µM
  TGI: 0.294 µM
[8]
  GI50: 0.154 µM
  TGI: 0.299 µM
[9]
  GI50: 0.125 µM
  TGI: 0.283 µM
[10]
  GI50: 0.0417 µM
  TGI: 0.154 µM
[11]
  GI50: 0.0135 µM
  TGI: 0.0424 µM
[12]
  GI50: 0.0499 µM
  TGI: 0.171 µM
[13]
  GI50: 0.2 µM
  TGI: 0.911 µM
[14]
  GI50: 0.102 µM
  TGI: 0.246 µM
[15]
  GI50: 0.0407 µM
  TGI: 0.163 µM
[16]
  GI50: 0.0854 µM
  TGI: 0.237 µM
[17]
  GI50: 0.119 µM
  TGI: 0.249 µM
[18]
  GI50: 0.032 µM
  TGI: 0.12 µM
[19]
  GI50: 0.0567 µM
  TGI: 0.239 µM
[20]
  GI50: 0.0238 µM
  TGI: 0.0853 µM
[21]
  GI50: 0.113 µM
  TGI: 0.467 µM
[22]
  GI50: 0.121 µM
  TGI: 0.263 µM
[23]
  GI50: 0.0396 µM
  TGI: 0.146 µM
[24]
  GI50: 0.109 µM
  TGI: 0.233 µM
[25]
  GI50: 0.0692 µM
  TGI: 0.229 µM
[26]
  GI50: 0.0181 µM
  TGI: 0.0324 µM
[57]
  GI50: 0.0525 µM
  TGI: 0.188 µM
[27]
  GI50: 0.0824 µM
  TGI: 0.409 µM
[30]
  GI50: 0.0472 µM
  TGI: 0.157 µM
[31]
  GI50: 0.0308 µM
  TGI: 0.138 µM
[32]
  GI50: 0.015 µM
  TGI: 0.0287 µM
[33]
  GI50: 0.0298 µM
  TGI: 0.0612 µM
[34]
  GI50: 0.102 µM
  TGI: 0.31 µM
[35]
  GI50: 0.0389 µM
  TGI: 0.168 µM
[36]
  GI50: 0.0982 µM
  TGI: 0.272 µM
[38]
  GI50: 0.0947 µM
  TGI: 0.222 µM
[39]
  GI50: 0.0792 µM
  TGI: 0.261 µM
[41]
  GI50: 0.0294 µM
  TGI: 0.095 µM
[42]
  GI50: 0.0934 µM
  TGI: 0.334 µM
[43]
  GI50: 0.0684 µM
  TGI: 0.384 µM
[44]
  GI50: 0.037 µM
  TGI: 0.137 µM
[45]
  GI50: 0.0192 µM
  TGI: 0.14 µM
[46]
  GI50: 0.0504 µM
  TGI: 0.17 µM
[47]
  GI50: 0.0658 µM
  TGI: 0.195 µM
[48]
  GI50: 0.14 µM
  TGI: 0.327 µM
[49]
  GI50: 0.0896 µM
  TGI: 0.216 µM
[50]
  GI50: 0.0697 µM
  TGI: 0.205 µM
[51]
  GI50: 0.129 µM
  TGI: 0.343 µM
[52]
  GI50: 0.166 µM
  TGI: 1.26 µM
[53]
  GI50: 0.0446 µM
  TGI: 0.205 µM
[54]
  GI50: 0.064 µM
  TGI: 0.229 µM
[55]
  GI50: 0.129 µM
  TGI: 0.263 µM
